Experimental data: paper PMC9458004, “Simultaneous Determination and Pharmacokinetics Study of Three Triterpenes from Sanguisorba officinalis L. in Rats by UHPLC–MS/MS” (Molecules, 2022)

Tests used:
[1] = Stability of the three analytes in rat plasma under various storage conditions; type: in vitro ADME; settings: n = 6; for Stability (% RE) Post-Preparative: 12 h after sample preparation at 4 °C; for Stability (% RE) Short-Term / Stability (% RE) Three Freeze-Thaw: rat plasma; for Stability (% RE) Short-Term: 4 h at ambient temperature; for Stability (% RE) Three Freeze-Thaw: three freeze-thaw cycles at −20 °C
Description: The stability of rat plasma under different storage conditions was determined. […] All compounds maintained steady levels for […].
The stability of the three compounds in rat plasma, including freeze and thaw stability (three freeze-thaw cycles at −20 °C), long-term stability (storage for 2 weeks at −80 °C), room temperature stability (storage for 4 h at ambient temperature), and post-preparation stability (storage for 12 h after sample preparation at 4 °C), was tested at two QC levels with six replicates at each level. All stability testing QC samples were determined using the calibration curve of freshly prepared standard samples.

[2] = Pharmacokinetic study in rats after single oral administration of ZGI, DGE, PA or S. officinalis extract (plasma, UHPLC-MS/MS); type: in vivo, Sprague-Dawley rats; settings: for conversion in vivo after oral administration (in words): rats, oral administration of the monomer, from plasma levels of ZGI, DGE, PA
Source text: The UHPLC–MS/MS method was successfully used in the pharmacokinetic studies of the three analytes after single dose administration of ZGI, DGE, PA, and S. officinalis extract in rats (0.55 g/kg, equivalent to 0.03, 0.013, and 0.007 g/kg of ZGI, DGE, and PA, respectively). Based on the body surface area calculations of people and the animals and equivalent dose conversion calculations, the dosage of the rats was 0.55 g/kg.
The experimental protocol was permitted by the Animal Ethics Committee of Harbin Medical University (Approval Code: AECHMU20150021, Approval Date: 3 June 2015) and conformed to the principles for the Care and Use of Laboratory Animals. Twenty-four male Sprague-Dawley rats (weighting 200 ± 20 g), which were provided by the Laboratory Animal Center at Harbin Medical University (Harbin, China), were used for the pharmacokinetic study. The animals were maintained in a SPF-grade room on a 12 h light/dark cycle with a controlled temperature conditions (21 ± 2 °C) and relative humidity (50 ± 5%) before the experiment. During the adaptation process, all rats were provided with standard food and purified water each morning and evening. Each rat fasted for 12 h before giving the drug and was randomly divided into one of four groups (n = 6).
A single dose of the S. officinalis extract (0.55 g/kg, group I), ZGI (0.03 g/kg, group II), DGE ([…], group III), and PA (0.013 g/kg, group IV) was administrated to the rats. The S. officinalis extract was dissolved in water. A single dose of 0.55 g/kg of S. officinalis extract was administrated to the rats. Blood was obtained from the retinal venous plexus at 0, 0.083, 0.5, 1.0, 1.5, 2.0, 2.5, 3.0, 4.0, 6.0, 8.0, 12.0, and 24.0 h after dosing. The plasma was immediately separated by centrifugation at 8000 rpm for 4 min at −4 °C.
The maximum concentration (Cmax) and the time to attain it (Tmax) were observed directly from the measured data. The elimination rate constant (Ke) was calculated by linear regression of the terminal points in a semi-log plot of the plasma concentration against time. The area under plasma concentration–time curve (AUC0→t) to the last measurable plasma concentration (Ct) was estimated using the linear trapezoidal rule.
Calculate the amount of three compounds using linear regression from the standard curve. The pharmacokinetic parameters of the analytes were calculated with DAS 2.0 (Shanghai, China). All results were expressed as mean ± SD. The comparison of pharmacokinetic parameters was conducted using standard Student’s t-test. Differences between groups were assumed statistically significant for p values < 0.05.

[3] = Stability of the three analytes in rat plasma under various storage conditions; type: in vitro ADME; settings: storage for 2 weeks at −80 °C (b26 says −20 °C), n = 6
[4] = high QC (ZGI 2080, DGE 1840, PA 840.0 ng/mL)
[5] = low QC (ZGI 19.5, DGE 17.4, PA 7.8 ng/mL)

SMILES | Stability (% RE) Post-Preparative [1, 4] [% RE] | Stability (% RE) Post-Preparative [1, 5] [% RE] | Stability (% RE) Short-Term [1, 4] [% RE] | Stability (% RE) Short-Term [1, 5] [% RE] | Stability (% RE) Three Freeze-Thaw [1, 4] [% RE] | Stability (% RE) Three Freeze-Thaw [1, 5] [% RE] | Cmax ([2]; male, Sprague-Dawley, analyte ZGI in rat plasma, single oral dose of the row's substance (S. officinalis extract 0.55 g/kg, ZGI 0.03 g/kg), n = 6, mean ± SD) [ng/mL] | Tmax ([2]; male, Sprague-Dawley, analyte ZGI in rat plasma, single oral dose of the row's substance (extract 0.55 g/kg, ZGI 0.03 g/kg), n = 6) [h] | half-life ([2]; male, Sprague-Dawley, analyte ZGI in rat plasma, single oral dose of the row's substance (extract 0.55 g/kg, ZGI 0.03 g/kg), n = 6, read-out: t1/2 of ZGI (converted)) [h] | conversion in vivo after oral administration (in words) [2] | Stability (% RE) Long-Term [3, 4] [% RE] | Stability (% RE) Long-Term [3, 5] [% RE]
C[C@@H]1CC[C@]2(C(=O)O[C@@H]3O[C@H](CO)[C@@H](O)[C@H](O)[C@H]3O)CC[C@]3(C)C(=CC[C@@H]4[C@@]5(C)CC[C@H](O[C@@H]6OC[C@H](O)[C@H](O)[C@H]6O)C(C)(C)[C@@H]5CC[C@]43C)[C@@H]2[C@]1(C)O [ZGI, Ziyuglycoside I] | 6.4 | 9.2 | 2.4 | 14 | 2.8 | 6.2 | 678 ± 47 | 1.4 ± 0.2 | 11 ± 1 | may be converted into DGE and PA | 3.4 | 15
C[C@@H]1CC[C@]2(C(=O)O)CC[C@]3(C)C(=CC[C@@H]4[C@@]5(C)CC[C@H](O)C(C)(C)[C@@H]5CC[C@]43C)[C@@H]2[C@]1(C)O [PA, pomolic acid] | 13 | 7.1 | 3.1 | −5.0 | 5.2 | 12 |  |  |  | cannot convert into ZGI and DGE | 7.6 | 13
CC1CCC2(C(=O)OC3OC(CO)C(O)C(O)C3O)CCC3(C)C(=CCC4C5(C)CCC(O)C(C)(C)C5CCC43C)C2C1(C)O [DGE, 3β,19α-dihydroxyurs-12-en-28-oic-acid 28-β-D-glucopyranosyl ester] | 7.7 | 14 | 0.70 | 8.4 | 3.5 | 3.3 |  |  |  | may be transformed into PA | 5.8 | 9.6
